PubChem BioAssay (NCI)
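Five concentrations, 48 hours, 96-well plates. Here, GI50 denotes the concentration required for 50% inhibition of growth. At the TGI there is no net growth.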

Assays:
Experiment in all cases: DTP human tumour cell line panel, 48 h
[1] = tested on: 786-0 renal
[2] = tested on: A498 renal
[3] = tested on: A549 NSCLC
[4] = tested on: ACHN renal
[5] = tested on: BT-549 breast
[6] = tested on: CAKI-1 renal
[7] = tested on: CCRF-CEM leukemia
[8] = tested on: COLO 205 colon
[9] = tested on: DU-145 prostate
[10] = tested on: EKVX NSCLC
[11] = tested on: HCC-2998 colon
[12] = tested on: HCT-116 colon
[13] = tested on: HCT-15 colon
[14] = tested on: HL-60(TB) leukemia
[15] = tested on: HOP-62 NSCLC
[16] = tested on: HOP-92 NSCLC
[17] = tested on: HS 578T breast
[18] = tested on: HT29 colon
[19] = tested on: IGROV1 ovarian
[20] = tested on: K-562 leukemia
[21] = tested on: KM12 colon
[22] = tested on: LOX IMVI melanoma
[23] = tested on: M14 melanoma
[24] = tested on: MALME-3M melanoma
[25] = tested on: MCF7 breast
[26] = tested on: MDA-MB-231 breast
[27] = tested on: MDA-MB-435
[28] = tested on: MOLT-4 leukemia
[29] = tested on: NCI-H226 lung

Question: What does the source list for `Nc1ncnc2c1c(-c1ccc(Oc3ccccc3)cc1)nn2C[C@H]1SSC[C@H]1O`?
Answer: GI50 [1]: 2.04 µM; TGI [1]: 6.37 µM; GI50 [2]: 1.84 µM; TGI [2]: 4.24 µM; GI50 [3]: 0.394 µM; TGI [3]: 2.07 µM; GI50 [4]: 0.499 µM; TGI [4]: 6.75 µM; GI50 [5]: 2.18 µM; TGI [5]: 6.52 µM; GI50 [6]: 0.938 µM; TGI [6]: 2.85 µM; GI50 [7]: 0.054 µM; TGI [7]: > 100 µM; GI50 [8]: 0.464 µM; TGI [8]: 1.8 µM; GI50 [9]: 1.07 µM; TGI [9]: 2.37 µM; GI50 [10]: 0.309 µM; TGI [10]: 1.73 µM; GI50 [11]: 0.388 µM; TGI [11]: 2.03 µM; GI50 [12]: 0.0489 µM; TGI [12]: 1.21 µM; GI50 [13]: 0.201 µM; TGI [13]: 2.29 µM; GI50 [14]: 0.242 µM; TGI [14]: 0.66 µM; GI50 [15]: 0.039 µM; TGI [15]: 0.893 µM; GI50 [16]: 2.03 µM; TGI [16]: 7.31 µM; GI50 [17]: 1.88 µM; TGI [17]: 8.7 µM; GI50 [18]: 0.179 µM; TGI [18]: 1.48 µM; GI50 [19]: 0.455 µM; TGI [19]: 2.47 µM; GI50 [20]: 0.197 µM; TGI [20]: 3.1 µM; GI50 [21]: 0.0618 µM; TGI [21]: 2.22 µM; GI50 [22]: 0.0703 µM; TGI [22]: 0.523 µM; GI50 [23]: 0.0157 µM; TGI [23]: 0.0332 µM; GI50 [24]: 0.0815 µM; TGI [24]: 0.332 µM; GI50 [25]: 0.0465 µM; TGI [25]: 1.2 µM; GI50 [26]: 1.33 µM; TGI [26]: 3.71 µM; GI50 [27]: 0.0255 µM; TGI [27]: 0.0736 µM; GI50 [28]: 0.0184 µM; TGI [28]: 0.0492 µM; GI50 [29]: 1.43 µM
